# Target: Aβ42 (Homo sapiens, UniProt P05067)
# Assay: Th-T (thioflavin-T) assay of Aβ42 aggregation
# Type: biochemical
# Chain of Aβ42 (P05067 672-713): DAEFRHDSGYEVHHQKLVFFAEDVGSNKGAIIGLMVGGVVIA
compound,measurement,setting,value
C=C1CCC2C(C)(CCC=C(C)C)C(O)CCC2(C)C1Cc1c(OC)oc(C)c(C(=O)OC)c1=O (stereo not drawn) [Compound 14],"Fig. 7a Th-T reading, mean of three wells","column suffix _20, reading M101",1.75
same,"Fig. 7a Th-T reading, mean of three wells","column suffix _20, reading M102",1.725
same,"Fig. 7a Th-T reading, mean of three wells","column suffix _20, reading M103",1.692
same,"Fig. 7a Th-T reading, mean of three wells","column suffix _20, reading M104",1.726
same,"Fig. 7a Th-T reading, mean of three wells","column suffix _20, reading M105",1.714
same,"Fig. 7a Th-T reading, mean of three wells","column suffix _20, reading M106",1.718
same,"Th-T fluorescence, mean of three wells (Fig. 7a)","column suffix _50, measurement M19",0.5495
same,"Th-T fluorescence, mean of three wells (Fig. 7a)","column suffix _50, measurement M20",0.5788
same,"Th-T fluorescence, mean of three wells (Fig. 7a)","column suffix _50, measurement M21",0.6066
same,"Th-T fluorescence, mean of three wells (Fig. 7a)","column suffix _50, measurement M22",0.6351
same,"Th-T fluorescence, mean of three wells (Fig. 7a)","column suffix _50, measurement M23",0.669
same,"Th-T fluorescence, mean of three wells (Fig. 7a)","column suffix _50, measurement M24",0.7075
same,"Th-T fluorescence, mean of three wells (Fig. 7a)","column suffix _50, measurement M25",0.7535
same,"Th-T fluorescence, mean of three wells (Fig. 7a)","column suffix _50, measurement M26",0.8076
same,"Th-T fluorescence, mean of three wells (Fig. 7a)","column suffix _50, measurement M27",0.8688
same,"Th-T fluorescence, mean of three wells (Fig. 7a)","column suffix _50, measurement M28",0.9376
same,"Th-T fluorescence, mean of three wells (Fig. 7a)","column suffix _50, measurement M29",1.02
same,"Th-T assay signal, mean of three wells (Fig. 7a)","column suffix _50, reading M1",0.5105
same,"Th-T assay signal, mean of three wells (Fig. 7a)","column suffix _50, reading M2",0.462
same,"Th-T assay signal, mean of three wells (Fig. 7a)","column suffix _50, reading M3",0.4558
same,"Th-T assay signal, mean of three wells (Fig. 7a)","column suffix _50, reading M4",0.4485
same,"Th-T assay signal, mean of three wells (Fig. 7a)","column suffix _50, reading M5",0.4526
same,"Th-T assay signal, mean of three wells (Fig. 7a)","column suffix _50, reading M6",0.449
same,"Th-T assay signal, mean of three wells (Fig. 7a)","column suffix _50, reading M7",0.4479
same,"Th-T assay signal, mean of three wells (Fig. 7a)","column suffix _50, reading M8",0.4517
same,"Th-T assay signal, mean of three wells (Fig. 7a)","column suffix _50, reading M9",0.4533
same,"Th-T assay signal, mean of three wells (Fig. 7a)","column suffix _50, reading M10",0.4553
same,"Th-T assay signal, mean of three wells (Fig. 7a)","column suffix _50, reading M11",0.4593
same,"Th-T assay signal, mean of three wells (Fig. 7a)","column suffix _50, reading M12",0.4664
same,"Th-T assay signal, mean of three wells (Fig. 7a)","column suffix _50, reading M13",0.4713
same,"Th-T assay signal, mean of three wells (Fig. 7a)","column suffix _50, reading M14",0.4784
same,"Th-T assay signal, mean of three wells (Fig. 7a)","column suffix _50, reading M15",0.4927
same,"Th-T assay signal, mean of three wells (Fig. 7a)","column suffix _50, reading M16",0.5
same,"Th-T assay signal, mean of three wells (Fig. 7a)","column suffix _50, reading M17",0.5148
same,"Th-T assay signal, mean of three wells (Fig. 7a)","column suffix _50, reading M18",0.5358
same,"Fig. 7a Th-T reading, mean of three wells","column suffix _50, reading M85",2.033
same,"Fig. 7a Th-T reading, mean of three wells","column suffix _50, reading M86",1.994
same,"Fig. 7a Th-T reading, mean of three wells","column suffix _50, reading M87",1.943
same,"Fig. 7a Th-T reading, mean of three wells","column suffix _50, reading M88",1.897
same,"Fig. 7a Th-T reading, mean of three wells","column suffix _50, reading M89",1.8491
same,"Fig. 7a Th-T reading, mean of three wells","column suffix _50, reading M90",1.8142
same,"Fig. 7a Th-T reading, mean of three wells","column suffix _50, reading M91",1.746
same,"Fig. 7a Th-T reading, mean of three wells","column suffix _50, reading M92",1.726
same,"Fig. 7a Th-T reading, mean of three wells","column suffix _50, reading M93",1.698
same,"Fig. 7a Th-T reading, mean of three wells","column suffix _50, reading M94",1.676
same,"Fig. 7a Th-T reading, mean of three wells","column suffix _50, reading M95",1.616
same,"Fig. 7a Th-T reading, mean of three wells","column suffix _50, reading M96",1.587
same,"Fig. 7a Th-T reading, mean of three wells","column suffix _50, reading M97",1.553
same,"Fig. 7a Th-T reading, mean of three wells","column suffix _50, reading M98",1.5408
same,"Fig. 7a Th-T reading, mean of three wells","column suffix _50, reading M99",1.482
same,"Fig. 7a Th-T reading, mean of three wells","column suffix _50, reading M100",1.465
same,"Fig. 7a Th-T reading, mean of three wells","column suffix _50, reading M101",1.408
same,"Fig. 7a Th-T reading, mean of three wells","column suffix _50, reading M102",1.3987
same,"Fig. 7a Th-T reading, mean of three wells","column suffix _50, reading M103",1.372
same,"Fig. 7a Th-T reading, mean of three wells","column suffix _50, reading M104",1.353
same,"Fig. 7a Th-T reading, mean of three wells","column suffix _50, reading M105",1.325
same,"Fig. 7a Th-T reading, mean of three wells","column suffix _50, reading M106",1.281
same,"Th-T fluorescence, mean of three wells","compound at 10, reading M41 of time course",2.4889
same,"Th-T fluorescence, mean of three wells","compound at 10, reading M42 of time course",2.504
same,"Th-T fluorescence, mean of three wells","compound at 10, reading M43 of time course",2.483
same,"Th-T fluorescence, mean of three wells","compound at 10, reading M44 of time course",2.485
same,"Th-T fluorescence, mean of three wells","compound at 10, reading M45 of time course",2.494
same,"Th-T fluorescence, mean of three wells","compound at 10, reading M46 of time course",2.517
same,"Th-T fluorescence, mean of three wells","compound at 10, reading M47 of time course",2.535
same,"Th-T fluorescence, mean of three wells","compound at 10, reading M48 of time course",2.517
same,"Th-T fluorescence, mean of three wells","compound at 10, reading M49 of time course",2.512
same,"Th-T fluorescence, mean of three wells","compound at 10, reading M50 of time course",2.53
same,"Th-T fluorescence, mean of three wells","compound at 10, reading M51 of time course",2.541
same,"Th-T fluorescence, mean of three wells","compound at 10, reading M52 of time course",2.557
same,"Th-T fluorescence, mean of three wells","compound at 10, reading M53 of time course",2.545
same,"Th-T fluorescence, mean of three wells","compound at 10, reading M54 of time course",2.546
same,"Th-T fluorescence, mean of three wells","compound at 10, reading M55 of time course",2.573
same,"Th-T fluorescence, mean of three wells","compound at 10, reading M56 of time course",2.561
same,"Th-T fluorescence, mean of three wells","compound at 10, reading M57 of time course",2.58
same,"Th-T fluorescence, mean of three wells","compound at 10, reading M58 of time course",2.605
same,"Th-T fluorescence, mean of three wells","compound at 10, reading M59 of time course",2.634
same,"Th-T fluorescence, mean of three wells","compound at 10, reading M60 of time course",2.6643
same,"Th-T fluorescence, mean of three wells","compound at 10, reading M61 of time course",2.702
same,"Th-T fluorescence, mean of three wells","compound at 10, reading M62 of time course",2.713
same,"Th-T fluorescence, mean of three wells","compound at 20, reading M41 of time course",2.067
same,"Th-T fluorescence, mean of three wells","compound at 20, reading M42 of time course",2.077
same,"Th-T fluorescence, mean of three wells","compound at 20, reading M43 of time course",2.068
same,"Th-T fluorescence, mean of three wells","compound at 20, reading M44 of time course",2.111
same,"Th-T fluorescence, mean of three wells","compound at 20, reading M45 of time course",2.074
same,"Th-T fluorescence, mean of three wells","compound at 20, reading M46 of time course",2.138
same,"Th-T fluorescence, mean of three wells","compound at 20, reading M47 of time course",2.131
same,"Th-T fluorescence, mean of three wells","compound at 20, reading M48 of time course",2.161
same,"Th-T fluorescence, mean of three wells","compound at 20, reading M49 of time course",2.157
same,"Th-T fluorescence, mean of three wells","compound at 20, reading M50 of time course",2.15
same,"Th-T fluorescence, mean of three wells","compound at 20, reading M51 of time course",2.157
same,"Th-T fluorescence, mean of three wells","compound at 20, reading M52 of time course",2.143
same,"Th-T fluorescence, mean of three wells","compound at 20, reading M53 of time course",2.161
same,"Th-T fluorescence, mean of three wells","compound at 20, reading M54 of time course",2.178
same,"Th-T fluorescence, mean of three wells","compound at 20, reading M55 of time course",2.1338
same,"Th-T fluorescence, mean of three wells","compound at 20, reading M56 of time course",2.09
same,"Th-T fluorescence, mean of three wells","compound at 20, reading M57 of time course",2.136
same,"Th-T fluorescence, mean of three wells","compound at 20, reading M58 of time course",2.093
same,"Th-T fluorescence, mean of three wells","compound at 20, reading M59 of time course",2.054
same,"Th-T fluorescence, mean of three wells","compound at 20, reading M60 of time course",2.083
same,"Th-T fluorescence, mean of three wells","compound at 20, reading M61 of time course",2.064
same,"Th-T fluorescence, mean of three wells","compound at 20, reading M62 of time course",2.104
same,"Th-T fluorescence, mean of three wells","compound at 50, reading M41 of time course",4.082
same,"Th-T fluorescence, mean of three wells","compound at 50, reading M42 of time course",4.376
same,"Th-T fluorescence, mean of three wells","compound at 50, reading M43 of time course",4.613
same,"Th-T fluorescence, mean of three wells","compound at 50, reading M44 of time course",4.79
same,"Th-T fluorescence, mean of three wells","compound at 50, reading M45 of time course",4.938
same,"Th-T fluorescence, mean of three wells","compound at 50, reading M46 of time course",5.058
same,"Th-T fluorescence, mean of three wells","compound at 50, reading M47 of time course",5.101
same,"Th-T fluorescence, mean of three wells","compound at 50, reading M48 of time course",5.128
same,"Th-T fluorescence, mean of three wells","compound at 50, reading M49 of time course",5.105
same,"Th-T fluorescence, mean of three wells","compound at 50, reading M50 of time course",5.093
same,"Th-T fluorescence, mean of three wells","compound at 50, reading M51 of time course",4.998
same,"Th-T fluorescence, mean of three wells","compound at 50, reading M52 of time course",4.942
same,"Th-T fluorescence, mean of three wells","compound at 50, reading M53 of time course",4.822

# Source: publication PMC7156458, “Synthetic biology based construction of biological activity-related library of fungal decalin-containing diterpenoid pyrones” (Nature Communications, 2020)
